Values of other authors, collected in US20100120075A1, “Composition and a method for suppressing the luminescence intensity decline in a luciferin-luciferase reaction” (priority 2008, published 2010).

System: Gaussia luciferase

Row | deactivation of the luciferase | suppression of reaction time-dependent decline in luminescent intensity | Molecule
1 | deactivated the luciferase | did not suppress the decline | CCCCCCCCCCCCOS(=O)(=O)[O-].[Na+] [sodium dodecyl sulfate]
2 |  | suppressed | nonyl phenoxylpolyethoxylethanol [NP-40]

Row | Molecule | deactivation of the luciferase | suppression of reaction time-dependent decline in luminescent intensity
3 | polyoxyethylene octyl phenyl ether [Triton X-100] |  | suppressed
